Experimental data: patent US12268726B2, “Treatment of rhinosinusitis with P-glycoprotein inhibitors” (Massachusetts Eye and Ear Infirmary, priority 2012, dated 2025)
Read-outs that look alike come from different tables or passages of the source.

Legend:
HSNECC cells = assay type: cell-based; settings: human, 24 h, 8 µM
Experimental: (§1) For P-gp mediated cytokine secretion testing, HSNECC cells were exposed to 0.05 mg/mL LPS stimulation for 23 hours with or without concomitant P-gp inhibition using PSC 833 (8 μM), which was applied one hour prior to LPS stimulation. Control wells were considered those exposed to culture medium alone (BEGM). A 0.4% trypan blue (Sigma, St. Louis, MO) cell survival assay was used to ensure the stimulant and inhibitor exposures were not cytotoxic. In all wells less than 20% of cells were stained blue indicating greater than 80% survival. Following the LPS and PSC 833 exposures, the media was removed from each well. Cytokine concentrations for GM-CSF, IL-6, IL-8, and IL-25 in each well were determined by ELISA according to the manufacturer guidelines (GM-CSF, IL-6, IL-8 eBioscience, San Diego, CA; IL-25 Assay Biotechnology, San Francisco, CA). Cytokine concentrations were normalized to total media protein concentrations using a Pierce BCA Protein Assay Kit.

[1] = test system: GM-CSF, IL-6, IL-8, IL-25 secretion in HSNECCs; experiment: P-gp mediated cytokine secretion testing (ELISA) in HSNECCs; assay type: cell-based, human
Experimental: as §1

GM-CSF secretion = GM-CSF secretion in LPS stimulated CRSwNP primary sinonasal epithelial cells with dexamethasone; assay type: cell-based, human; settings: LPS 0.0125 mg/ml
Source text: The increase in intracellular corticosteroid concentration potentiates its anti-inflammatory effect. Primary sinonasal epithelial cell culture was derived from patients with chronic sinusitis with nasal polyps (CRSwNP) and stimulated with LPS, a component of gram negative bacterial cell walls.

P-gp [2] = target: T1, P-gp (Homo sapiens, UniProt P08183); experiment: Steroid release from nasal polyp explants after dexamethasone incubation; assay type: cell-based; settings: polyp explants after 30-minute dexamethasone 0.05 mg/mL; PSC 833 (804) vs media alone
Experimental: The ability of nasal polyp explants to retain steroid after a 30-minute incubation in dexamethasone (0.05 mg/mL, n=6) was examined. Following incubation, polyp explants were placed either in media alone or in media containing the P-gp inhibitor PSC 833 (804) and the amount of steroid released by the explants into the surrounding media was measured.

[3] = test system: IL-6, IL-8, GM-CSF, TSLP secretion in PNECCs; experiment: LPS stimulated cytokine secretion (ELISA) in PNECCs; assay type: cell-based, human; settings: mean; for normalized IL-6 secretion: normalized to total media protein
Experimental: (§2) Cells were exposed to 23 hours of stimulation with LPS (0.05 mg/mL) with or without concomitant P-gp inhibition by PSC 833(8 micM), which was applied to cells 1 hour prior to LPS treatment. Control wells were considered those exposed to culture medium alone (BEGM). A 0.4% trypan blue (Sigma, St. Louis, MO) cell survival assay was used to ensure the stimulant and inhibitor exposures were not cytotoxic. In all wells less than 20% of cells were stained blue indicating greater than 80% survival. Following the LPS and PSC 833 exposures, the media was removed from each well. Cytokine concentrations for IL-6, IL-8, GM-CSF, and TSLP in each well were determined by ELISA according to the manufacturer guidelines (eBioscience, San Diego, CA). Cytokine concentrations were normalized to total media protein concentrations using a Pierce BCA Protein Assay Kit.

P-gp [4] = assay type: cell-based, human; settings: PNECCs, mean
Experimental: Following removal of media from each well, the cytoplasmic and membranous protein fractions were isolated using a two-step extraction assay (DualXtract, Bulldog Bio, Inc., Portsmouth, NH). Membrane bound P-gp was quantified by subjecting the membranous fraction to ELISA (USCN Life Sciences Inc., Wuhan, P.R. China) and normalized to the cytoplasmic protein concentration.
In some wells, a specific P-gp inhibitor (PSC 833 8 micM, Tocris Bioscience, Bristol, UK) was applied to the cells 1 hour prior to LPS stimulation. Following the LPS and PSC 833 treatment, the media was removed from each well, and ELISA was performed to quantify membrane bound P-gp.

P-gp [5] = target: T1, P-gp; experiment: Intracellular dexamethasone retention in primary sinonasal epithelial cells (CRSwNP); assay type: cell-based; settings: LPS stimulated, three patients
Source text: These cultured primary sinonasal epithelial cells were stimulated with lipopolysaccharide (LPS) in the presence or absence of the P-gp inhibitor PSC 833.

PNECCs = experiment: 0.4% trypan blue cell survival assay in PNECCs; assay type: cell-based, human
Experimental: PNECC cells were exposed to 23 hours of stimulation with lipopolysaccharide (LPS, 0.05 mg/mL), which is a toll-like receptor 4 agonist and capable of eliciting a strong immune responses. Control cells were considered those exposed to culture medium alone (BEGM). A 0.4% trypan blue (Sigma, St. Louis, MO) cell survival assay was used to ensure the stimulant exposures were not cytotoxic. In all wells, less than 20% of cells were stained blue indicating greater than 80% survival of the cells. Following the LPS exposures, the media was removed from each well.
as §2, with “Cytokine concentrations were normalized to total media protein concentrations using a Pierce BCA Protein Assay Kit.” left out

P-gp [6] = target: T1, P-gp; settings: Varma et al., 2003; cited from earlier work
P-gp [7] = experiment: Q-FIHC for membranous P-gp expression in PNECCs; assay type: cell-based, human; settings: LPS 0.05 mg/mL, 23 h
Experimental: Exclusion criteria included the following: diagnosis of chronic sinusitis, use of oral steroids or immunotherapy within the preceding 4 weeks, aspirin sensitivity, ciliary dysfunction, autoimmune disease, cystic fibrosis, or any known immunodeficiency. All tissues were derived from schneiderian mucosa within the middle meatus.
Mucosal biopsies were washed and digested in Pronase for 90 minutes at 37° C. Cell suspensions were separated from particulate matter by centrifugation and resuspended in basal epithelial growth medium (BEGM) (Lonza, Basel, Switzerland). Cells were plated for 2 hours on standard tissue culture plates to remove contaminating fibroblasts. Cells were then expanded for 3-5 days on collagen coated 75 cm 2 dishes (Corning Life Sciences, Corning, NY). Once confluent, the PNECCs were trypsinized and re-seeded evenly on human collagen type IV-coated 6-well tissue culture plates. Cultures were grown to 80% confluence in BEGM prior to testing. PNECC cells intended for immunohistochemistry were grown on tissue culture treated coverslips placed within the wells. […]
Q-FIHC for membranous P-gp expression was performed using previously described techniques (Kirkeby et al., 2005). […] The mean corrected luminosity was considered the staining intensity (calculated using Image J v1.45s) divided by the total number of pixels subtended by the cells.

P-gp [8] = experiment: ELISA of membrane-bound P-glycoprotein in CRSwNP HSNECCs; assay type: cell-based, human; settings: LPS 0.05 mg/mL, ng/mL normalized to total cytoplasmic protein (mcg/mL) per FIG. 17B
Experimental: Human sinonasal nasal epithelial cell cultures (HSNECCs) from five patients were grown from nasal polyps as previously described. Briefly, polyp samples were washed and digested in Pronase for 90 minutes at 37° C. Cell suspensions were separated from particulate matter by centrifugation and resuspended in BEGM. Cells were plated for 2 hours on standard tissue culture plates to remove contaminating fibroblasts. Cells were then expanded for 3-5 days on collagen coated 75 cm^2 dishes (Corning Life Sciences, Corning, NY). Once confluent, the HSNECCs were trypsinized and re-seeded evenly on human collagen type IV-coated 6-well and 96-well tissue culture plates. 6-well cultures were grown to 80% confluence in BEGM prior to cytokine and protein analysis. 96-well plates intended for the dose dependent inhibition assay were grown to 100% confluence. Cells intended for immunohistochemistry were grown on tissue culture treated coverslips.
Membrane-bound P-glycoprotein in HSNECCs was quantified as follows. After removal of media from each well, the cytoplasmic and membranous protein fractions were isolated using a two-step extraction assay (DualXtract, Bulldog Bio, Inc., Portsmouth, NH).

[9] = LPS 0.05 mg/mL + PSC 833 8 μM, no inhibition
[10] = LPS 0.05 mg/mL + PSC 833 8 micM

T1 sequence (P08183 whole entry): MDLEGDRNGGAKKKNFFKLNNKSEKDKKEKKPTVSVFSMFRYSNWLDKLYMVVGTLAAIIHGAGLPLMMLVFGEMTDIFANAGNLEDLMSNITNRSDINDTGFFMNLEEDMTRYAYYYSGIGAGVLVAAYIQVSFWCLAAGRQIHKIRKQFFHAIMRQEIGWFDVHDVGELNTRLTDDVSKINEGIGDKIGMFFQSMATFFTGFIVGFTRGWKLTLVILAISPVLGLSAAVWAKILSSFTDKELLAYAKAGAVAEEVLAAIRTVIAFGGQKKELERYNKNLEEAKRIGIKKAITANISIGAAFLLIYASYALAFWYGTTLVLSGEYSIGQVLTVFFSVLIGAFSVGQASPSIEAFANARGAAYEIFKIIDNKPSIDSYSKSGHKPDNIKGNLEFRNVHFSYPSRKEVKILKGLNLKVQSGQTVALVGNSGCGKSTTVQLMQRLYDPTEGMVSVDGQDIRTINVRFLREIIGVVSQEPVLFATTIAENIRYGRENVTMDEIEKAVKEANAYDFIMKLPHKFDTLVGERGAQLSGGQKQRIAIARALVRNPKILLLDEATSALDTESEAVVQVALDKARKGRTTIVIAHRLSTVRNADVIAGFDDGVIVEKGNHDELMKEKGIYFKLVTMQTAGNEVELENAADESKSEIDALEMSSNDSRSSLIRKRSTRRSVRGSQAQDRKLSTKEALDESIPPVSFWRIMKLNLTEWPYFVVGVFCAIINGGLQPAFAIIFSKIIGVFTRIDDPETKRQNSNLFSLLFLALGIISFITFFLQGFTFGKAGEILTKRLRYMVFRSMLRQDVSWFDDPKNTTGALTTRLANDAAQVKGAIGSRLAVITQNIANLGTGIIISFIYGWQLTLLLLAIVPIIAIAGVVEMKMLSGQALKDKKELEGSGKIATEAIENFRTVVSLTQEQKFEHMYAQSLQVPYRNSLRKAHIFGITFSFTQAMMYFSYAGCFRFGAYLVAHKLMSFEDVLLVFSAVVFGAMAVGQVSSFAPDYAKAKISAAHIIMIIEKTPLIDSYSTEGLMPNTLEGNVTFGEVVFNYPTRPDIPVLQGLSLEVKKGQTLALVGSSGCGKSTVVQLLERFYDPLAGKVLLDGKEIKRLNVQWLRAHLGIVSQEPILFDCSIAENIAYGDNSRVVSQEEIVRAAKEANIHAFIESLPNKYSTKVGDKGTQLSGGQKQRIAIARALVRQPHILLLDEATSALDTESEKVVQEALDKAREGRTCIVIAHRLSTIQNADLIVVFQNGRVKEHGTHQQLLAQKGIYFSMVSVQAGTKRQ

C/C=C/C[C@@H](C)C(=O)[C@H]1C(=O)N[C@@H](C(C)C)C(=O)N(C)CC(=O)N(C)[C@@H](CC(C)C)C(=O)N[C@@H](C(C)C)C(=O)N(C)[C@@H](CC(C)C)C(=O)N[C@@H](C)C(=O)N[C@H](C)C(=O)N(C)[C@@H](CC(C)C)C(=O)N(C)[C@@H](CC(C)C)C(=O)N(C)[C@@H](C(C)C)C(=O)N1C [PSC 833, 6-[(2S,4R,6E)-4-methyl-2-(methylamino)-3-oxo-6-octenoic acid]-7-L-valine-cyclosporin A]
cell survival (trypan blue) (HSNECC cells): greater than 80% | secretion of GM-CSF normalized to total media protein ([1]; LPS 0.05 mg/mL + PSC 833 8 μM): 8.47+/−3.28 pcg/mL normalized to total med | secretion of IL-6 normalized to total media protein ([1]; LPS 0.05 mg/mL + PSC 833 8 μM): 39.94+/−31.07 pcg/mL normalized to total med | secretion of IL-8 normalized to total media protein [1, 9]: 1608.41+/−471.94 pcg/mL normalized to total med | secretion of IL-25 normalized to total media protein [1, 9]: 0.073+/−0.038 pcg/mL normalized to total med | GM-CSF secretion compared to dexamethasone treatment alone (GM-CSF secretion; PSC833 (804) + dexamethasone 0.1 mg/mL): reduced GM-CSF secretion | steroid release by explants into surrounding media (P-gp [2]): statistically significant decrease | normalized GM-CSF secretion [3, 10]: 7.64 | normalized TSLP secretion [3, 10]: 5.13 | normalized IL-8 secretion ([3]; LPS 0.05 mg/mL + PSC 833 8 micM, reduction not significant (p=0.313)): 801.09 | normalized IL-6 secretion [3, 10]: 37.60 | normalized membranous P-gp (ELISA, normalized to cytoplasmic protein) (P-gp [4]; LPS + PSC 833 8 micM applied 1 hour prior to LPS, not significant vs LPS alone (p=0.115)): 70.40 | intracellular dexamethasone retention relative to dexamethasone alone (P-gp [5]): increased intracellular dexamethasone retention | cell survival (trypan blue) (PNECCs; human, 24 h, 8 µM): greater than 80%

CCOC/C=C/c1ccc(-c2nc(-c3ccc(NC(C)C)cc3)c(-c3ccc(NC(C)C)cc3)[nH]2)cc1 [OC144093, 4-[2-[4-[(E)-3-ethoxyprop-1-enyl]phenyl]-4-[4-(propan-2-ylamino)phenyl]-1H-imidazol-5-yl]-N-propan-2-ylaniline]
potency relative to the first and second-generation P-gp inhibitors (P-gp [6]): about 10 fold

lipopolysaccharide [LPS]
mean corrected luminosity of membranous P-gp (Q-FIHC) (P-gp [7]): 9.64 | secretion of GM-CSF normalized to total media protein ([1]; LPS 0.05 mg/mL alone, 23 hours): 45.21+/−41.39 pcg/mL normalized to total med | secretion of IL-6 normalized to total media protein ([1]; LPS 0.05 mg/mL alone, 23 hours): 63.16+/−36.37 pcg/mL normalized to total med | secretion of IL-8 normalized to total media protein ([1]; LPS 0.05 mg/mL alone, 23 hours): 1041.17+/−550.52 pcg/mL normalized to total med | secretion of IL-25 normalized to total media protein ([1]; LPS 0.05 mg/mL alone, 23 hours): 0.075+/−0.039 pcg/mL normalized to total med | GM-CSF secretion versus unstimulated control cells (GM-CSF secretion): increased GM-CSF secretion | normalized GM-CSF secretion ([3]; LPS 0.05 mg/mL alone, 23 h): 39.92 | normalized IL-8 secretion ([3]; LPS 0.05 mg/mL alone, 23 h): 912.91 | normalized TSLP secretion ([3]; LPS 0.05 mg/mL alone, 23 h): 6.65 | normalized IL-6 secretion ([3]; LPS 0.05 mg/mL alone, 23 h): 79.67 | normalized membranous P-gp (ELISA, normalized to cytoplasmic protein) (P-gp [4]; LPS 0.05 mg/mL alone, 23 h): 19.63 | mean normalized concentration of membranous P-gp (ELISA) (P-gp [8]): 22.23+/−10.22 | cell survival (trypan blue) (PNECCs; PNECCs, LPS 0.05 mg/mL, 23 hours): greater than 80%

COc1cc2c(cc1OC)CN(CCc1ccc(NC(=O)c3cc(OC)c(OC)cc3NC(=O)c3cnc4ccccc4c3)cc1)CC2 [XR9576, N-[2-[[4-[2-(6,7-Dimethoxy-3,4-dihydro-1H-isoquinolin-2-yl)ethyl]phenyl]carbamoyl]-4,5-dimethoxyphenyl]quinoline-3-carboxamide]
potency relative to the first and second-generation P-gp inhibitors (P-gp [6]): about 10 fold
